These results are taken from patent publication US7291353B2, “Anti-peptic ulcer activity of an extract of a flower of Woodfordia fruticosa” (Council of Scientific and Industrial Research, priority 2002, dated 2007).

For experiment [1], the system named is frog gastric mucosa (histamine stimulated acid secretion). Nature of the experiment: Frog Chamber Study: histamine-stimulated acid secretion of chambered frog gastric mucosa. More on the design: species or system Rana hexadactyla; key to Comment (qualitative rank score): the rank score for both cimetidine and omeprazole (considered as 100%) were given as +8. As to conditions: for concentration enough to block almost complete acid secretion: 0.1-0.2 mM histamine; for Comment (qualitative rank score): cimetidine and omeprazole (100%) = +8.
Procedure: Frog Chamber Study: The in organ experiments using the whole frog stomach to assess the anti-HCl secreting potential of extracts and their fractions were carried out employing Frog Chamber Model (for detail about the logic of the experiment and the information to be generated.
Frog Chamber Study: The study is based on the principle of ‘No Acid No Ulcer’. […] In this in vitro study, frog stomach is mounted in a plastic tube (Using Chamber Study). Employing histamine as the ulcerogen (final common mediator of all the physiological secretagogues), the rate and extent of proton secretion are quantitatively assessed as a function of the amount of herbal preparation and duration of treatment.
The experimental approach, as standardized through a series of experiments with more than 200 plant extracts, has been to measure, over time, (i) basal acid secretion, (ii) histamine-stimulated acid secretion, (iii) extract-induced (two doses) acid secretion, followed by (iv) extract-withdrawn acid secretion. For a particular stomach, after the basal secretion level is known, histamine is inserted from the nutrient side to see maximum acid secreting potential. Thereafter, an extract is inserted (first lower dose and then higher dose) from the nutrient side in presence of continuous supply of histamine to mimic ulcerative situation, followed by withdrawal of the extract by washing the nutrient side with histamine-containing nutrient medium. This latter phase is expected to generate information regarding the efficacy of the extract, upon its withdrawal, towards inhibiting the continuously existing acid secreting phase.
Experiments are carried out with in vitro preparations of gastric mucosa mounted over one end of a plastic tube (mounted area is 1.76 cm^2) with the mucosal surface facing out. The mounted tissue is placed vertically inside a 25-ml container. The nutrient solution is regular Frog Ringer solution and the luminal side (secretory side) is bathed in an unbuffered NaCl solution. The volumes of nutrient and mucosal solutions are adjusted in a way so as to be able to maintain constant hydrostatic pressure in the chamber throughout the duration of the experiment. Both solutions are slowly and continuously bubbled with O2 during the entire duration of the experiment. The mucosal solution is slowly and continuously stirred with a magnetic stirrer and collected at 15-min intervals in thoroughly washed clean vials.

Experiment [2] has as its system Helicobacter pylori virulent strain 121 A. Nature of the experiment: Anti H. pylori Activity, Disc Diffusion Sensitivity Test, strain 121A. The class given is cell-based. As to conditions: 0.5 mg/disc; one range stated for both the strains (121A). On the technique in general: Agar diffusion results depend on both activity and mobility in agar.
Experiment [3] relates to Helicobacter pylori avirulent strain 80A. Nature of the experiment: Anti H. pylori Activity, Disc Diffusion Sensitivity Test, strain 80A. The class given is cell-based. The conditions noted are these: 0.5 mg/disc; one range stated for both the strains (80A).
The target in the next experiment is T1, Gastric H^+, K^+-ATPase (Sus scrofa, UniProt P19156).
T1 construct: These membranes are primarily enriched in tubulovescicular and apical membranes; from tissue; host or cells: pig stomach (gastric mucosa), tubulovesicular and apical membranes
Nature of the experiment: Anti Gastric Proton Pump Activity Study. The format is biochemical, pig. The conditions noted are these: dose range of 0.3-3.0 mg/assay. The source says:
The applicant have selected one whole animal model—Cold Restraint Stress Ulcer in Rat (in vivo) to assess ulcer protection capacity of the extracts [Senay E. C. and Levine R. J., Proc Soc. Exp. Biol. Med. 124, 1221 (1967)], one isolated stomach model—Chambered Frog Gastric Mucosa (in organ) to assess anti HCl secretion potential [Durbin R. P. and Kircher A. B., Biochem. Biophys. Acta, 321, 553 (1973); Ray, T. K. and Tague L. R., Biochem. Pharmacol. 29, 2755 (1980); Ray et al., Proc. Natl. Acad. Sci. (USA) 79, 1448 (1982)], gastric proton pump inhibition model using pig gastric H^+, K^+-ATPase-rich apical and tubulovesicular membranes (in vitro) to examine enzyme inhibition [Bandopadhyay, S. Das, P. K., Wright, M. V., Nandi, J., Bhattacharyya, D. and Ray, T. K., J. Biol. Chem. 262, 5664 (1987)], and anti Helicobacter pylori activity assessment by Disc Diffusion Sensitivity Assay [Glupczynski, Y. In: Helicobacter pylori: techniques for clinical diagnosis & basic research, (Eds. Adrian Lee & Francis Megraud), W. B. Saunders Company Ltd., 1996, pp. 17-32].
3. […] K^+-stimulated activity, referred to as H^+, K^+-ATPase, was calculated as the difference between the activities obtained in presence of Mg^2+ plus K^+ and the basal activity (Mg^2+-ATPase) in presence of MG^2+ alone.

T1 sequence (P19156 2-1034 limits assumed): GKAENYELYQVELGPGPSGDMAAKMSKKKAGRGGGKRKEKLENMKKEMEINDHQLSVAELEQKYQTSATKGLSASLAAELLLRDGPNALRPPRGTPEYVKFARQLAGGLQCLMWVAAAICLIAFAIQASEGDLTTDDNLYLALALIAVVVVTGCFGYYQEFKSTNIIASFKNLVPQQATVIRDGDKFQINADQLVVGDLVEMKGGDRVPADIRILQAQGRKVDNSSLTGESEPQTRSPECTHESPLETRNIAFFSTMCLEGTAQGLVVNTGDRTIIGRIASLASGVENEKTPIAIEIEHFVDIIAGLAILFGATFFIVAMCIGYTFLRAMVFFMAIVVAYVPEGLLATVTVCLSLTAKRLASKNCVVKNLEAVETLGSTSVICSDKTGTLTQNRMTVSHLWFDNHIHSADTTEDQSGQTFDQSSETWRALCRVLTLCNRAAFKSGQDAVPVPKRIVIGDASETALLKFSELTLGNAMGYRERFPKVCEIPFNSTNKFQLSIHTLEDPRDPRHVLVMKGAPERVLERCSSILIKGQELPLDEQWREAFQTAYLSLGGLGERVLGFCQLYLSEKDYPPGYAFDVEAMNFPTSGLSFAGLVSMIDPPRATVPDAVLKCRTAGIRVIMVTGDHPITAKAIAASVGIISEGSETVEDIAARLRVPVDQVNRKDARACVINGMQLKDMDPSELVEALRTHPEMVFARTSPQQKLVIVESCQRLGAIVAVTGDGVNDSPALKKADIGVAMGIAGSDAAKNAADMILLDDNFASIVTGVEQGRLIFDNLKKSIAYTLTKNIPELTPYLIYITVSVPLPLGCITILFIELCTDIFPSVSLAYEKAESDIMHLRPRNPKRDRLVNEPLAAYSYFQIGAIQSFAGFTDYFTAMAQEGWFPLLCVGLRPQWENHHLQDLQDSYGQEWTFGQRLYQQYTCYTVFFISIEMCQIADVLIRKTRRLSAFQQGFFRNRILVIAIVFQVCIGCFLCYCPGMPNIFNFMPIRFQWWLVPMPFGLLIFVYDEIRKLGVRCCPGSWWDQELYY
T1 sequence (P18434 whole entry partner): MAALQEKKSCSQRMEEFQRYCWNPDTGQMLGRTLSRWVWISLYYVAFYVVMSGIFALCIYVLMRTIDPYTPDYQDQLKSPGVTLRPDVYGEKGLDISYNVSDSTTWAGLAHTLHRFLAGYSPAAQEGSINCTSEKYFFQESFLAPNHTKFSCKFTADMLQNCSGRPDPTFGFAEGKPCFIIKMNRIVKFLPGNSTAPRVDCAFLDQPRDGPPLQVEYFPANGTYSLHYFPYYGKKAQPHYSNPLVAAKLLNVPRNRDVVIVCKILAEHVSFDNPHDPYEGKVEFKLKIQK

For the molecule `CN/C(=N/CCSCc1nc[nH]c1C)NC#N` [cimetidine], the “concentration enough to block almost complete acid secretion” value in experiment [1] (added from nutrient side) lay in the range of 0.1 to 0.2 mM. Besides, the “Comment (qualitative rank score)” value in experiment [1] was “+8”.

`CC[C@H]1OC(=O)[C@H](C)[C@@H](O[C@H]2C[C@@](C)(OC)[C@@H](O)[C@H](C)O2)[C@H](C)[C@@H](O[C@@H]2O[C@H](C)C[C@H](N(C)C)[C@H]2O)[C@](C)(OC)C[C@@H](C)C(=O)[C@H](C)[C@@H](O)[C@]1(C)O` [clarithromycin]: the inhibition zone diameter in experiment [2] and in experiment [3] was 2.3-2.7 cm throughout.

For the molecule `COc1ccc2[nH]c([S+]([O-])Cc3ncc(C)c(OC)c3C)nc2c1` (stereo not shown) [omeprazole], the “concentration enough to block almost complete acid secretion” value in experiment [1] (added from secretory side) fell in the range of 1 to 10 mM. Moreover, the “Comment (qualitative rank score)” value in experiment [1] is recorded as “+8”. At Gastric H^+, K^+-ATPase, the “% inhibition of H^+, K^+-ATPase” value is given as 50-100%.
